Source: US10301288B2, “Kinase inhibitors” (Topivert Pharma Limited, priority 2013, dated 2019)

How the values were obtained:
PBMCs [1] = assay: (b) LPS-induced TNFα/IL-8 release in PBMC cells; type: cell-based; details: Homo sapiens, read-out: IC50 for Inhibition of Cytokine Release, IL-8
Description: Peripheral blood mononuclear cells (PBMCs) from healthy subjects are separated from whole blood using a density gradient (Lymphoprep, Axis-Shield Healthcare). The PBMCs are seeded in 96 well plates and treated with compounds at the desired concentration for 2 hours before addition of 1 ng/ml LPS (Escherichia Coli 0111:B4 from Sigma Aldrich) for 24 hours under normal tissue culture conditions (37° C., 5% CO2). The supernatant is harvested for determination of IL-8 and TNFα concentrations by sandwich ELISA (Duo-set, R&D systems) and read on the fluorescence microplate reader (Varioskan® Flash, ThermoFisher Scientific).

β-catenin = assay: (m) Accumulation of β catenin in d-U937 cells; type: cell-based, human; details: Reference Compound at 1 μg/mL defined as 100%
Description: U937 cells, a human monocytic cell line, are differentiated into macrophage-type cells by incubation with PMA; (100 ng/mL) for between 48 to 72 hr. The cells are then incubated with either final concentrations of test compound or vehicle for 18 hr. The induction of β-catenin by the test compounds is stopped by replacing the media with 4% formaldehyde solution. Endogenous peroxide activity is neutralised by incubating with quenching buffer (100 μL, 0.1% sodium azide, 1% H2O2 in PBS with 0.05% Tween-20) for 20 min. The cells are washed with washing buffer (200 μL; PBS containing 0.05% Tween-20) and incubated with blocking solution (200 μL; 5% milk in PBS) for 1 hr, re-washed with washing buffer (200 μL) and then incubated overnight with anti-β-catenin antibody solution (50 μL) in 1% BSA/PBS (BD, Oxford, UK).
After washing with washing buffer (3×200 μL; PBS containing 0.05% Tween-20), cells are incubated with an HRP-conjugated secondary antibody solution (100 μL) in 1% BSA/PBS (Dako, Cambridge, UK) and the resultant signal is determined colourimetrically (OD: 450 nm with a reference wavelength of 655 nm) using TMB substrate (50 μL; R&D Systems, Abingdon, UK). This reaction is stopped by addition of 1N H2SO4 solution (50 μL). Cells are then washed with washing buffer and 2% crystal violet solution (50 μL) is applied for 30 min. After washing with washing buffer (3×200 μL), 1% SDS (100 μL) is added to each well and the plates are shaken lightly for 1 hr prior to measuring the absorbance at 595 nm (Varioskan® Flash, Thermo-Fisher Scientific).
The measured OD450-655 readings are corrected for cell number by dividing the OD450-655 by the OD595 readings.

HT29 cells = assay: (d) IL-1β-induced IL-8 release in HT29 cells; type: cell-based; details: Homo sapiens, HT-29, read-out: IC50 for Inhibition of Cytokine Release, IL-8
Description: HT29 cells, a human colon adenocarcinoma cell line, are plated in a 96 well plate (24 hrs) and pre-treated with compounds at the desired concentration for 2 hours before addition of 5 ng/ml of IL-1β (Abeam) for 24 hours. Supernatants are harvested for IL-8 quantification by Sandwich ELISA (Duo-set, R&D System). The IC50 is determined from the dose response curve.

PBMCs [2] = assay: (i) Cell mitosis assay in PBMCs; type: cell-based; details: Homo sapiens, PBMC, 5 μg/mL
Description: PBMCs from healthy subjects are separated from whole blood (Quintiles, London, UK) using a density gradient (Histopaque®-1077, Sigma-Aldrich, Poole, UK). The PBMCs (3 million cells per sample) are subsequently treated with 2% PHA (Sigma-Aldrich, Poole, UK) for 48 hr, followed by a 20 hr exposure to varying concentrations of test compounds. At 2 hr before collection, PBMCs are treated with demecolcine (0.1 μg/mL; Invitrogen, Paisley, UK) to arrest cells in metaphase. […] Fluorescence is observed using an ATTUNE flow cytometer (Invitrogen, Paisley, UK), gating for lymphocytes.

GSK3α = GSK3α (Homo sapiens (Human), UniProt P49840); assay: GSK 3α enzyme inhibition (FRET, Method 2); type: biochemical
Description: (§1) The enzyme inhibitory activities of compounds disclosed herein are determined by FRET using synthetic peptides labelled with both donor and acceptor fluorophores (Z-LYTE, Invitrogen Ltd., Paisley, UK).
The inhibitory activities of compounds of the invention against the GSK 3α enzyme isoform (Invitrogen), are evaluated by determining the level of activation/phosphorylation of the target peptide. The GSK3-α protein (500 ng/mL, 2.5 μL) is mixed with the test compound (2.5 μL at either 4 μg/mL, 0.4 μg/mL, 0.04 μg/mL, or 0.004 μg/mL) for 2 hr at RT. The FRET peptide (8 μM, 2.5 μL), which is a phosphorylation target for GSK3α, and ATP (40 μM, 2.5 μL) are then added to the enzyme/compound mixture and the resulting mixture incubated for 1 hr. Development reagent (protease, 5 μL) is added for 1 hr prior to detection in a fluorescence microplate reader (Varioskan® Flash, ThermoFisher Scientific).
(§2) In all cases, the site-specific protease cleaves non-phosphorylated peptide only and eliminates the FRET signal. Phosphorylation levels of each reaction are calculated using the ratio of coumarin emission (donor) over fluorescein emission (acceptor), for which high ratios indicate high phosphorylation and low ratios indicate low phosphorylation levels.

c-Src = c-Src (Homo sapiens (Human), UniProt P12931); assay: c-Src enzyme inhibition (FRET); type: biochemical
Description: as §1
(§3) The inhibitory activities of compounds of the invention against c-Src and Syk enzymes (Invitrogen), are evaluated in a similar fashion to that described hereinabove. The relevant enzyme (3000 ng/mL or 2000 ng/mL respectively, 2.5 μL) is incubated with the test compound (either 4 μg/mL, 0.4 μg/mL, 0.04 μg/mL, or 0.004 μg/mL, 2.5 μL each) for 2 hr at RT. The FRET peptides (8 μM. 2.5 μL), and appropriate ATP solutions (2.5 μL, 800 μM for c-Src, and 60 μM ATP for Syk) are then added to the enzymes/compound mixtures and incubated for 1 hr. Development reagent (protease, 5 μL) is added for 1 hr prior to detection in a fluorescence microplate reader (Varioskan® Flash, ThermoFisher Scientific).
as §2

PBMCs [3] = assay: (c) IL-2 and IFN gamma release in CD3/CD28 stimulated PBMC cells; type: cell-based; details: Homo sapiens
Description: PBMCs from healthy subjects are separated from whole blood using a density gradient (Lymphoprep, Axis-Shield Healthcare). Cells are added to a 96 well plate pre-coated with a mixture of CD3/CD28 monoclonal antibodies (0.3 ug/ml eBioscience and 3 ug/ml BD Pharmingen respectively). Compound at the desired concentration is then added to the wells and the plate left for 3 days under normal tissue culture conditions. […] The IC50 is determined from the dose response curve.

p38 MAPKα = p38 MAPKα (Homo sapiens (Human), UniProt Q16539); assay: p38 MAPKα enzyme inhibition (FRET, Method 2); type: biochemical
Description: as §1
The inhibitory activities of test compounds against the p38 MAPKα isoform (MAPK14: Invitrogen), are evaluated indirectly by determining the level of activation/phosphorylation of the down-stream molecule, MAPKAP-K2. The p38 MAPKα protein (80 ng/mL, 2.5 μL) is mixed with the test compound (2.5 μL of either 4 μg/mL, 0.4 μg/mL, 0.04 μg/mL or 0.004 μg/mL) for 2 hr at RT. […] The mixture is incubated for 1 hr at RT. Development reagent (protease, 5 μL) is added for 1 hr prior to detection in a fluorescence microplate reader (Varioskan® Flash, ThermoFisher Scientific).
as §2

Syk = Syk (Homo sapiens (Human), UniProt P43405); assay: Syk enzyme inhibition (FRET); type: biochemical
Description: as §1, §3, §2

[4] = Hydrolytic stability study in DMSO and water (3:1); type: physicochemical; details: 1 mg/mL
Description: General HPLC Procedure • Agilent, Waters X-Select C18, 2.5 μm, 4.6×30 mm column, 4 min method, 5-95% MeCN/water (0.1% formic acid). • Flow rate 2.5 ml/min • Column Oven Temperature 40° C. • Detection 254 nm.
Sample Preparation • A 1.0 mg sample of test compound was dissolved in 750 μL of DMSO. Water (250 μL) was added slowly, ensuring no precipitation occurred.
Recording Stability • A 50 μL aliquot of the test solution was removed and analysed in duplicate by 5 μL HPLC injections. The peak area for the test compound was recorded following manual integration of the corresponding UV trace. • The test solution was heated to 60° C., with stirring, and 50 μL aliquots removed for HPLC analysis at 5 and 24 h timepoints.

[5] = read-out: IC50 for Inhibition of Cytokine Release, IFNγ
[6] = read-out: IC50 for Inhibition of Cytokine Release, IL-2

Chain of p38 MAPKα (Q16539 whole entry): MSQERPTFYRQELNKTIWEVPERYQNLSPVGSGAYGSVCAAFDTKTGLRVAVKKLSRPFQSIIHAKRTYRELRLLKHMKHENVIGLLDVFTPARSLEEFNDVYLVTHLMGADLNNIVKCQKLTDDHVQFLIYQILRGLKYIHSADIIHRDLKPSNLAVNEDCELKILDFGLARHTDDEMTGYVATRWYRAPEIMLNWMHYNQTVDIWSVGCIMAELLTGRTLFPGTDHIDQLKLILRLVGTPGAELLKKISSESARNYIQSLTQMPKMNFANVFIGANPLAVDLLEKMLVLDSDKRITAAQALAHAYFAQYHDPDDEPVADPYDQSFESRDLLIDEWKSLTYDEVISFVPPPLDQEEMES
Chain of c-Src (P12931 whole entry, looked up): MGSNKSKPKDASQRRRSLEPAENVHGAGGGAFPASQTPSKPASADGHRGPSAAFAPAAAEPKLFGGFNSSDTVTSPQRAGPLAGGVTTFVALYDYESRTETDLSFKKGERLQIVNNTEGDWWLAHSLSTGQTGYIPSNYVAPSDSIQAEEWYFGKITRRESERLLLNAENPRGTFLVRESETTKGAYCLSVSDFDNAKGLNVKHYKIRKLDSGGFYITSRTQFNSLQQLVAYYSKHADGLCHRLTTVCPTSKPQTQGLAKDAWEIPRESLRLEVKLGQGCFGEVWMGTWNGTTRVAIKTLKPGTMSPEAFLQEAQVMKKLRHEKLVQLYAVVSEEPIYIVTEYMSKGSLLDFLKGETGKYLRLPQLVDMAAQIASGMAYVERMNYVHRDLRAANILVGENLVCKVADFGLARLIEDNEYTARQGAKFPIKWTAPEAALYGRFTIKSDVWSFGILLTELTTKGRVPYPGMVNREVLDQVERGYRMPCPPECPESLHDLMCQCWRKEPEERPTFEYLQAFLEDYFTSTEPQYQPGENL
Chain of GSK3α (P49840 whole entry): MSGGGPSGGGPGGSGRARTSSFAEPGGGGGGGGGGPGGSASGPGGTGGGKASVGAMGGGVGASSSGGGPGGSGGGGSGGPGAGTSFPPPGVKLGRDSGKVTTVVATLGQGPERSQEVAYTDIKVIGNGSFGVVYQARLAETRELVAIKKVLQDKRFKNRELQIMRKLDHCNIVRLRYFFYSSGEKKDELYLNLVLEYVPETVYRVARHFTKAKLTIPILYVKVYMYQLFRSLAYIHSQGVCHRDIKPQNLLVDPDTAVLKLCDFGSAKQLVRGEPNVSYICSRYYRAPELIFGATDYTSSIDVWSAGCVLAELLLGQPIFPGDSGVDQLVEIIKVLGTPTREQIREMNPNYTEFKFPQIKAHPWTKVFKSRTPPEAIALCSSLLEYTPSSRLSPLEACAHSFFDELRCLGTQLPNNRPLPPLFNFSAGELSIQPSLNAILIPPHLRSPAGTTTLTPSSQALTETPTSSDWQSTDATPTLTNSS

Row | IC50 (HT29 cells) | IC50 (GSK3α) | IC50 (c-Src) | IC50 (p38 MAPKα) | IC50 (Syk) | % left ([4]; 0 min) | % left ([4]; 60° C., 300 min) | % left ([4]; 60° C., 1440 min) | Structure (SMILES) | IC50 (PBMCs [1]) | % β-catenin induction (β-catenin; 1 μg/mL) | % β-catenin induction (β-catenin; 5 μg/mL) | % β-catenin induction (β-catenin; 10 μg/mL) | inhibition at 5 µg/mL (PBMCs [2]) | IC50 (PBMCs [3]; [5]) | IC50 (PBMCs [3]; [6])
1 | 1.6 nM | 2020 nM | 18 nM | 88 nM | 237 nM | – | – | – | C#Cc1cc(Nc2nccc(Oc3ccc(NC(=O)Nc4cc(C(C)(C)C)nn4-c4ccc(C)cc4)c4ccccc34)n2)cc(C(=O)NCCOCCOCCOCCOC)c1 [Example 7, 3-((4-((4-(3-(3-(tert-Butyl)-1-(p-tolyl)-1H-pyrazol-5-yl)ureido)naphthalen-1-yl)oxy)pyrimidin-2-yl)amino)-5-ethynyl-N-(2,5,8,11-tetraoxatridecan-13-yl)benzamide] | 2.4 nM | 0% | −2% | −5% | 9.1% | 3.7 nM | 91 nM
2 | 3.2 nM | 2890 nM | 20 nM | 104 nM | 120 nM | – | – | – | C#Cc1cc(Nc2nccc(Oc3ccc(NC(=O)Nc4cc(C(C)(C)C)nn4-c4ccc(C)cc4)c4ccccc34)n2)cc(C(=O)NCCOCCOC)c1 [Example 8, 3-((4-((4-(3-(3-(tert-Butyl)-1-(p-tolyl)-1H-pyrazol-5-yl)ureido)naphthalen-1-yl)oxy)pyrimidin-2-yl)amino)-5-ethynyl-N-(2-(2-methoxyethoxy)ethyl)benzamide] | 1.6 nM | 6% | 3% | 2% | 6.1% | 8.5 nM | 55 nM
3 | 5.3 nM | 9550 nM | 19 nM | 50 nM | 46 nM | – | – | – | COCCOCCOCCNC(=O)c1cc(Nc2cc(Oc3ccc(NC(=O)Nc4cc(C(C)(C)C)nn4-c4ccc(C)cc4)c4ccccc34)ccn2)cc(OC)c1 [Example 4, 3-((4-((4-(3-(3-(tert-Butyl)-1-(p-tolyl)-1H-pyrazol-5-yl)ureido)naphthalen-1-yl)oxy)pyridin-2-yl)amino)-5-methoxy-N-(2-(2-(2-methoxyethoxy)ethoxy)ethyl)-benzamide] | 1.4 nM | 5% | 12% | – | 38.8% | 2.4 nM | 37.4 nM
4 | – | – | – | – | – | 100% | 82% | 36% | C#Cc1cc(Nc2nccc(Oc3ccc(NC(=O)Nc4cc(C(C)C)nn4-c4ccc(C)cc4)c4ccccc34)n2)cc(C(=O)NCCN2CCOCC2)c1 [Reference Compound A, 3-ethynyl-5-((4-((4-(3-(3-isopropyl-1-(p-tolyl)-1H-pyrazol-5-yl)ureido)naphthalen-1-yl)oxy)pyrimidin-2-yl)amino)-N-(2-morpholinoethyl)benzamide, reference compound] | – | – | – | – | – | – | –
